Test results as given in patent US20260183275A1, “SUBSTITUTED QUINOLONE COMPOUNDS USEFUL AS INHIBITORS OF TLR9” (Bristol-Myers Squibb Company, priority 2022, published 2026).

Tests used:
Type in all cases: cell-based
[1] = molecular target: T1, human TLR7 (Homo sapiens, UniProt Q9NYK1); experiment: TLR7 inhibition reporter assay (HEK-Blue cells, SEAP reporter); settings: HEK-Blue cells overexpressing human TLR7; stimulated with gardiquimod 7.5 μM; SEAP read after 22 hour; dose range 0.05 nM-50 μM
T1 construct: host or cells: HEK-Blue cells
T1 sequence (Q9NYK1 27-1049): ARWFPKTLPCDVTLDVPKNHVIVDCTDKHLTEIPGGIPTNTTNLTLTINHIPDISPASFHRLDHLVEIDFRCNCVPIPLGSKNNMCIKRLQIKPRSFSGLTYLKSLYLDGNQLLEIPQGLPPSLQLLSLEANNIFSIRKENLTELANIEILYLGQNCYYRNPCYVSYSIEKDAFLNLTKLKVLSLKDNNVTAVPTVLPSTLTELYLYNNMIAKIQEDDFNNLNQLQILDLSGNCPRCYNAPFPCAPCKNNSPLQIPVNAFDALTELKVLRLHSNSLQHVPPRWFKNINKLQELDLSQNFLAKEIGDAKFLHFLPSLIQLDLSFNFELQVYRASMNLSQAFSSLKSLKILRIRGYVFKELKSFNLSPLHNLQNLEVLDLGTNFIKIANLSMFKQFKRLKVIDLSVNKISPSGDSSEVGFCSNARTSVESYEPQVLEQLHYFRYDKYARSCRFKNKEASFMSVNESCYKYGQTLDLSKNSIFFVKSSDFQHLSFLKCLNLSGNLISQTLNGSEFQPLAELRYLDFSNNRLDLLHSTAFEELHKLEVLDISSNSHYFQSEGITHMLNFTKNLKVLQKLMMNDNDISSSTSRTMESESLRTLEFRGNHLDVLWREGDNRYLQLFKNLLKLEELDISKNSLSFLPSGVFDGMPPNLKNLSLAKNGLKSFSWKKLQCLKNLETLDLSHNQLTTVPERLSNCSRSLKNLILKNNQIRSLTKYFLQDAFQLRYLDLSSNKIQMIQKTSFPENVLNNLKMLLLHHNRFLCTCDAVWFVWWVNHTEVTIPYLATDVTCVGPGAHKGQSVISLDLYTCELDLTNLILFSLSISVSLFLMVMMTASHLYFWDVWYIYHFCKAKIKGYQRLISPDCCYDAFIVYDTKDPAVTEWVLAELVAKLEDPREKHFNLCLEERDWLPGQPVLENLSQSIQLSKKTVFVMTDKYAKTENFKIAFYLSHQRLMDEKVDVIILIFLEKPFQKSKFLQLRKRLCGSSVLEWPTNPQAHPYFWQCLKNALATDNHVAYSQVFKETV
Method in brief: (§1)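 HEK-Blue cells with NF-κB/AP-1-driven SEAP pre-treated 30 min with compounds (0.05 nM-50 μM), then stimulated with gardiquimod 7.5 μM (TLR7), R848 15.9 μM (TLR8) or ODN2006 5 nM (TLR9). SEAP read after 22 h at 37° C; % inhibition relative to agonist+DMSO and reference-inhibitor wells.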

[2] = molecular target: T2, human TLR8 (Homo sapiens, UniProt Q9NR97); experiment: TLR8 inhibition reporter assay (HEK-Blue cells, SEAP reporter); settings: HEK-Blue cells overexpressing human TLR8; stimulated with R848 15.9 μM; SEAP read after 22 hour; dose range 0.05 nM-50 μM
T2 construct: host or cells: HEK-Blue cells
T2 sequence (Q9NR97 27-1041): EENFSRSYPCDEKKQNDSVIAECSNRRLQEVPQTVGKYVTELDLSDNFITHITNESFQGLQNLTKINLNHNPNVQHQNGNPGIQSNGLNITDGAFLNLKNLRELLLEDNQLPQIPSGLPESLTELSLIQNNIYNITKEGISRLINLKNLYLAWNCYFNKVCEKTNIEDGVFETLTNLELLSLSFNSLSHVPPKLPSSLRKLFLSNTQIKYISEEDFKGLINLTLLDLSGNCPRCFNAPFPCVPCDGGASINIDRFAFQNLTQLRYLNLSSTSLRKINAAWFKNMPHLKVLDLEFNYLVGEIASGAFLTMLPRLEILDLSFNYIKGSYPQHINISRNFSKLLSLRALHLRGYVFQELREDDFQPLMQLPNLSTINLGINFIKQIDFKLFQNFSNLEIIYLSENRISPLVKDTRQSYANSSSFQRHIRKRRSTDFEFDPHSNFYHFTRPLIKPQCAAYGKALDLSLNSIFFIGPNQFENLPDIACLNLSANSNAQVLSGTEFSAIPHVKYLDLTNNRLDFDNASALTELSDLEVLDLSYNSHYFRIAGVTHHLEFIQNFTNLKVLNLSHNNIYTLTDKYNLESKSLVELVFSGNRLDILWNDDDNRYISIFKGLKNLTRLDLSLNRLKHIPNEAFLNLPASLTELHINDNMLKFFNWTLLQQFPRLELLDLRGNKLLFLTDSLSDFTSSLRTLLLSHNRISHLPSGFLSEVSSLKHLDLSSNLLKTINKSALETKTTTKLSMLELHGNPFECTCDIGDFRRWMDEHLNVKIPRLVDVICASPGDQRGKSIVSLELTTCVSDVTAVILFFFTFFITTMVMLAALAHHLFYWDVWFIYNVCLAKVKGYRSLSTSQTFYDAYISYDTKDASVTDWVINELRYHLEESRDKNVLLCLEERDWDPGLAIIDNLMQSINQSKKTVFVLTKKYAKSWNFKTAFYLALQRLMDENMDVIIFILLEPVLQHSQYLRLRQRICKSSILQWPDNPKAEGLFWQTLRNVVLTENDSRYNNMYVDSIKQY
Method in brief: as §1

[3] = molecular target: T3, human TLR9 (Homo sapiens, UniProt Q9NR96); experiment: TLR9 inhibition reporter assay (HEK-Blue cells, SEAP reporter); settings: HEK-Blue cells overexpressing human TLR9; stimulated with ODN2006 5 nM; SEAP read after 22 hour; dose range 0.05 nM-50 μM
T3 construct: host or cells: HEK-Blue cells
T3 sequence (Q9NR96 26-1032): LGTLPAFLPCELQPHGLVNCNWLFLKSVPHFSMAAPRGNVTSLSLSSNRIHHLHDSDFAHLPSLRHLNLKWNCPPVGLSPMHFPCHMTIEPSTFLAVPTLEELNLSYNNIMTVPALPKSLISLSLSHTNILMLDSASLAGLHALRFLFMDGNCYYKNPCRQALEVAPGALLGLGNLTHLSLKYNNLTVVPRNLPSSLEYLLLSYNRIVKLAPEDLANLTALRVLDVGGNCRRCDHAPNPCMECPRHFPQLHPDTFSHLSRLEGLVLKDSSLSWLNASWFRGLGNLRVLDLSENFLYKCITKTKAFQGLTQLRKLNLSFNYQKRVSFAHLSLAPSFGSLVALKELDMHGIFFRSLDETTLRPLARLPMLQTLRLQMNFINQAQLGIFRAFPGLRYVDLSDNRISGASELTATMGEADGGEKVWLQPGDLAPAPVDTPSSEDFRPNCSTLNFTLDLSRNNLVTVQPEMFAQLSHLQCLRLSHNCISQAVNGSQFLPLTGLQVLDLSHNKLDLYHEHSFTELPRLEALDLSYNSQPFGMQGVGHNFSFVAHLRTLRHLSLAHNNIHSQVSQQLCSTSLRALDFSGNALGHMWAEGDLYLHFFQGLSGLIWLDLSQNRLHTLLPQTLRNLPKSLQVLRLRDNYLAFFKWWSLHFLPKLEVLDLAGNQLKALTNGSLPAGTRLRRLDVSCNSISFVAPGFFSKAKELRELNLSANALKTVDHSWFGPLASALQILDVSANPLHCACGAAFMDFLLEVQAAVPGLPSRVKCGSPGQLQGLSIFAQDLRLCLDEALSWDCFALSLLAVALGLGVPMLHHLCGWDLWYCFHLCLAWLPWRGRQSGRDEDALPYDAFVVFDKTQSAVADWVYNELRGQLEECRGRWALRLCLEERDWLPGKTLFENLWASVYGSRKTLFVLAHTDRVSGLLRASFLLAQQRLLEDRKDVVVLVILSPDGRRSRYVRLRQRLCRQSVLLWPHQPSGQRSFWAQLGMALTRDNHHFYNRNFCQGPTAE
Method in brief: as §1

IC50 [1]	IC50 [2]	IC50 [3]	SMILES
1220 nM	83 nM	615 nM	CC(=O)Nc1ccc(-c2cc3cc(-c4ccc(N5CCN(C(C)C)CC5)cc4)ccc3n(C)c2=O)cc1 [Example 57, N-[4-(1-methyl-2-oxo-6-{4-[4-(propan-2-yl)piperazin-1-yl]phenyl}-1,2-dihydroquinolin-3-yl)phenyl]acetamide]
32600 nM	1390 nM	538 nM	CC(C)N1CCN(c2ccc(-c3ccc4c(c3)cc(-c3ccccc3)c(=O)n4C)cc2)CC1 [Example 58, 1-methyl-3-phenyl-6-{4-[4-(propan-2-yl)piperazin-1-yl]phenyl}-1,2-dihydroquinolin-2-one]
≥ 50000 nM	≥ 50000 nM	736 nM	CC(C)N1CCN(c2ccc(-c3ccc4[nH]c(=O)c(-c5ccc(C(=O)N(C)C)cc5)cc4c3)cc2)CC1 [Example 60, N,N-dimethyl-4-(2-oxo-6-{4-[4-(propan-2-yl)piperazin-1-yl]phenyl}-1,2-dihydroquinolin-3-yl)benzamide]
≥ 50000 nM	≥ 50000 nM	1640 nM	CC(C)N1CCN(c2ccc(-c3ccc4[nH]c(=O)c(-c5ccc(N6CC[C@@H](O)C6)cc5)cc4c3)cc2)CC1 [Example 61, 3-{4-[(3R)-3-hydroxypyrrolidin-1-yl]phenyl}-6-{4-[4-(propan-2-yl)piperazin-1-yl]phenyl}-1,2-dihydroquinolin-2-one]
≥ 50000 nM	≥ 50000 nM	1760 nM	CC(C)N1CCN(c2ccc(-c3ccc4[nH]c(=O)c(-c5ccc(C(=O)O)cc5)cc4c3)cc2)CC1 [Example 62, 4-(2-oxo-6-{4-[4-(propan-2-yl)piperazin-1-yl]phenyl}-1,2-dihydroquinolin-3-yl)benzoic acid]
2810 nM	11000 nM	27 nM	CCc1c(-c2ccc(OC)c(OC)c2)c(=O)[nH]c2ccc(C3CCN(C4CCN(C(C)C)CC4)CC3)cc12 [Example 63, 3-(3,4-dimethoxyphenyl)-4-ethyl-6-[1′-(propan-2-yl)-[1,4′-bipiperidine]-4-yl]-1,2-dihydroquinolin-2-one]
1480 nM	≥ 50000 nM	30 nM	CC(C)N1CCC(N2CCC(c3ccc4[nH]c(=O)c(-c5ccccc5)cc4c3)CC2)CC1 [Example 64, 3-phenyl-6-[1′-(propan-2-yl)-[1,4′-bipiperidine]-4-yl]-1,2-dihydroquinolin-2-one]
342 nM	4870 nM	55 nM	CC(C)N1CCC(c2ccc(-c3ccc4[nH]c(=O)c(-c5ccc(S(N)(=O)=O)cc5)cc4c3)cc2)CC1 [Example 65, 4-(2-oxo-6-{4-[1-(propan-2-yl)piperidin-4-yl]phenyl}-1,2-dihydroquinolin-3-yl)benzene-1-sulfonamide]
9970 nM	≥ 50000 nM	57 nM	CCc1c(-c2ccc(S(C)(=O)=O)cc2)c(=O)[nH]c2ccc(C3CCN(C4CCN(C(C)C)CC4)CC3)cc12 [Example 66, 4-ethyl-3-(4-methanesulfonylphenyl)-6-[1′-(propan-2-yl)-[1,4′-bipiperidine]-4-yl]-1,2-dihydroquinolin-2-one]
817 nM	≥ 50000 nM	67 nM	CC(C)N1CCC(c2ccc(-c3ccc4[nH]c(=O)c(-c5cccc(NS(C)(=O)=O)c5)cc4c3)cc2)CC1 [Example 67, N-[3-(2-oxo-6-{4-[1-(propan-2-yl)piperidin-4-yl]phenyl}-1,2-dihydroquinolin-3-yl)phenyl]methanesulfonamide]
7960 nM	475 nM	70 nM	CC(C)N1CCC(c2ccc(-c3ccc4c(c3)cc(-c3ccc(S(C)(=O)=O)cc3)c(=O)n4C)cc2)CC1 [Example 68, 3-(4-methanesulfonylphenyl)-1-methyl-6-{4-[1-(propan-2-yl)piperidin-4-yl]phenyl}-1,2-dihydroquinolin-2-one]
538 nM	17600 nM	75 nM	CC(C)N1CCC(c2ccc(-c3ccc4[nH]c(=O)c(-c5cccc(C#N)c5)cc4c3)cc2)CC1 [Example 69, 3-(2-oxo-6-{4-[1-(propan-2-yl)piperidin-4-yl]phenyl}-1,2-dihydroquinolin-3-yl)benzonitrile]
204 nM	≥ 50000 nM	78 nM	CN1CCC(c2ccc(-c3ccc4[nH]c(=O)c(-c5ccc(NS(C)(=O)=O)cc5)cc4c3)cc2)CC1 [Example 70, N-(4-{6-[4-(1-methylpiperidin-4-yl)phenyl]-2-oxo-1,2-dihydroquinolin-3-yl}phenyl)methanesulfonamide]
29900 nM	9280 nM	140 nM	CC(C)N1CCC(c2ccc(-c3ccc4[nH]c(=O)c(-c5ccc(S(C)(=O)=O)cc5)cc4c3)cc2)CC1 [Example 71, 3-(4-methanesulfonylphenyl)-6-{4-[1-(propan-2-yl)piperidin-4-yl]phenyl}-1,2-dihydroquinolin-2-one]
